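A five-concentration, 48-hour dose response in 96-well plates underlies each endpoint, interpolated linearly between surrounding concentrations. Here, GI50 denotes the concentration required for 50% inhibition of growth.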 The source made the active and inactive calls. No stated cut-off is given here; in the data, active = GI50 up to about 1.1 µM and inactive = higher.
Key:
Assay in all cases: NCI tumour cell line growth inhibition, 48 h
786-0 = test system: 786-0
CCRF-CEM = test system: CCRF-CEM
COLO 205 = test system: COLO 205
HCT-116 = test system: HCT-116
HT-29 = test system: HT-29
IGROV-1 = test system: IGROV-1
K562 = test system: K562
KM12 = test system: KM12
LOX IMVI = test system: LOX IMVI
M14 = test system: M14
MDA-MB-435 = test system: MDA-MB-435
NCI-H23 = test system: NCI-H23
NCI-H460 = test system: NCI-H460
OVCAR-5 = test system: OVCAR-5
SF-539 = test system: SF-539
SK-MEL-5 = test system: SK-MEL-5
SK-OV-3 = test system: SK-OV-3
T47D = test system: T47D
UACC-257 = test system: UACC-257
UO-31 = test system: UO-31

Measured: GI50

CCN1CCCn2c(=O)[nH]c3cc(Br)cc1c32
inactive: 786-0 65 µM | CCRF-CEM > 100 µM | COLO 205 > 100 µM | HCT-116 > 100 µM | HT-29 > 100 µM | IGROV-1 > 100 µM | K562 > 100 µM | KM12 > 100 µM | LOX IMVI > 100 µM | M14 > 100 µM | MDA-MB-435 > 100 µM | NCI-H23 > 100 µM | NCI-H460 > 100 µM | OVCAR-5 > 100 µM | SF-539 23 µM | SK-MEL-5 > 100 µM | SK-OV-3 25.2 µM | T47D 65.5 µM | UACC-257 > 100 µM | UO-31 > 100 µM

CNC1=CC(=O)C2=C(C1=O)[C@H]1CC[C@]3(C)C(=O)CC[C@H]3[C@@H]1CC2
inactive: 786-0 17.3 µM | CCRF-CEM 9.18 µM | COLO 205 13.7 µM | HCT-116 16.9 µM | IGROV-1 5.43 µM | K562 12.6 µM | KM12 7.43 µM | LOX IMVI 4.54 µM | M14 13.5 µM | MDA-MB-435 5.66 µM | NCI-H23 5.13 µM | NCI-H460 18.5 µM | OVCAR-5 22.7 µM | SF-539 18.4 µM | SK-MEL-5 8.18 µM | SK-OV-3 43.6 µM | T47D 18.9 µM | UACC-257 13.2 µM | UO-31 18.8 µM

Cc1c2ccccc2c(/C=N/NC(=O)CSCC(=O)N/N=C/c2c3ccccc3c(C)c3ccccc23)c2ccccc12
inactive: 786-0 20.7 µM | CCRF-CEM 34.2 µM | HCT-116 55.6 µM | HT-29 > 39.3 µM | IGROV-1 > 100 µM | K562 37.9 µM | KM12 > 56.4 µM | LOX IMVI > 57.4 µM | M14 > 52.5 µM | MDA-MB-435 > 79.6 µM | NCI-H23 11.4 µM | NCI-H460 > 57.7 µM | OVCAR-5 38.9 µM | SF-539 18.1 µM | SK-MEL-5 54.7 µM | SK-OV-3 > 100 µM | T47D > 25.6 µM | UACC-257 31.6 µM | UO-31 > 84.1 µM

O=C1Cc2c([nH]c3ccc(Br)cc23)-c2ccccc2N1 [KENPAULLONE]
inactive: 786-0 > 46.3 µM | CCRF-CEM 5.55 µM | COLO 205 > 100 µM | HT-29 5.19 µM | IGROV-1 9.75 µM | K562 > 54.8 µM | KM12 2.73 µM | LOX IMVI 5.35 µM | M14 > 100 µM | MDA-MB-435 > 100 µM | NCI-H23 > 100 µM | NCI-H460 > 100 µM | OVCAR-5 > 100 µM | SF-539 2.43 µM | SK-MEL-5 > 28.4 µM | SK-OV-3 > 100 µM | T47D > 100 µM | UACC-257 > 100 µM | UO-31 > 100 µM

CC(C)(C)OC(=O)N/N=C(/N)Cc1ccccc1
inactive: 786-0 > 100 µM | CCRF-CEM > 100 µM | COLO 205 > 100 µM | HCT-116 > 100 µM | HT-29 > 100 µM | IGROV-1 > 100 µM | K562 > 100 µM | KM12 > 100 µM | LOX IMVI > 100 µM | M14 > 100 µM | MDA-MB-435 > 100 µM | NCI-H23 > 100 µM | OVCAR-5 > 100 µM | SF-539 > 100 µM | SK-MEL-5 > 100 µM | SK-OV-3 > 100 µM | T47D > 100 µM | UACC-257 > 100 µM | UO-31 > 100 µM

N#CC1=C(N2CCOCC2)CCC1
inactive: 786-0 > 100 µM | CCRF-CEM > 100 µM | COLO 205 > 100 µM | HCT-116 > 100 µM | HT-29 > 100 µM | IGROV-1 > 100 µM | K562 > 100 µM | KM12 > 100 µM | LOX IMVI > 100 µM | M14 > 100 µM | MDA-MB-435 > 100 µM | NCI-H23 > 100 µM | OVCAR-5 > 100 µM | SF-539 > 100 µM | SK-MEL-5 > 100 µM | SK-OV-3 > 100 µM | T47D > 100 µM | UACC-257 > 100 µM | UO-31 > 100 µM

— ChEMBL document CHEMBL1201862, “PubChem BioAssay data set” (2004)
